Experimental data: the CheMixHub viscosity set
± gives the uncertainty stated by the source.

Test: xn = mol fraction of the nth substance listed

`CC(C)CCl` + C1CCOC1 showed a viscosity (298.15 K, 101 kPa, x2 = 0.0537) of 0.4311 ± 0.0053 mPa·s, a viscosity (298.15 K, 101 kPa, x2 = 0.1037) of 0.4325 ± 0.0053 mPa·s and a viscosity (298.15 K, 101 kPa, x2 = 0.2081) of 0.4353 ± 0.0053 mPa·s. The viscosity (298.15 K, 101 kPa, x2 = 0.3079) was 0.4379 ± 0.0053 mPa·s, the viscosity (298.15 K, 101 kPa, x2 = 0.41) was 0.4409 ± 0.0052 mPa·s and the viscosity (298.15 K, 101 kPa, x2 = 0.5085) was 0.4442 ± 0.0052 mPa·s. The viscosity (298.15 K, 101 kPa, x2 = 0.5964) was 0.4472 ± 0.0052 mPa·s, the viscosity (298.15 K, 101 kPa, x2 = 0.705) was 0.4512 ± 0.0052 mPa·s and the viscosity (298.15 K, 101 kPa, x2 = 0.8051) was 0.455 ± 0.0052 mPa·s. The viscosity (298.15 K, 101 kPa, x2 = 0.8989) was 0.4589 ± 0.0051 mPa·s, the viscosity (298.15 K, 101 kPa, x2 = 0.951) was 0.461 ± 0.0051 mPa·s and the viscosity (313.15 K, 101 kPa, x2 = 0.0537) was 0.368 ± 0.0051 mPa·s. It also gave a viscosity (313.15 K, 101 kPa, x2 = 0.1037) of 0.3694 ± 0.005 mPa·s, a viscosity (313.15 K, 101 kPa, x2 = 0.2081) of 0.3723 ± 0.005 mPa·s and a viscosity (313.15 K, 101 kPa, x2 = 0.3079) of 0.3751 ± 0.005 mPa·s. The viscosity (313.15 K, 101 kPa, x2 = 0.41) was 0.3781 ± 0.005 mPa·s, the viscosity (313.15 K, 101 kPa, x2 = 0.5085) was 0.381 ± 0.005 mPa·s and the viscosity (313.15 K, 101 kPa, x2 = 0.5964) was 0.3837 ± 0.005 mPa·s. The viscosity (313.15 K, 101 kPa, x2 = 0.705) was 0.3871 ± 0.0049 mPa·s, the viscosity (313.15 K, 101 kPa, x2 = 0.8051) was 0.3904 ± 0.0049 mPa·s and the viscosity (313.15 K, 101 kPa, x2 = 0.8989) was 0.3938 ± 0.0049 mPa·s. The viscosity (313.15 K, 101 kPa, x2 = 0.951) was 0.3957 ± 0.0049 mPa·s.
Work on `ClC(Cl)=C(Cl)Cl` + C1CCOC1 yielded a viscosity (303.15 K, 101 kPa, x2 = 0.0667) of 0.7821 ± 0.0063 mPa·s, a viscosity (303.15 K, 101 kPa, x2 = 0.1429) of 0.763 ± 0.0062 mPa·s and a viscosity (303.15 K, 101 kPa, x2 = 0.2457) of 0.7362 ± 0.006 mPa·s. For the same compound, the viscosity (303.15 K, 101 kPa, x2 = 0.3692) was 0.7008 ± 0.0058 mPa·s, the viscosity (303.15 K, 101 kPa, x2 = 0.4384) was 0.6795 ± 0.0056 mPa·s and the viscosity (303.15 K, 101 kPa, x2 = 0.5309) was 0.6487 ± 0.0054 mPa·s. It also gave a viscosity (303.15 K, 101 kPa, x2 = 0.6897) of 0.5914 ± 0.005 mPa·s, a viscosity (303.15 K, 101 kPa, x2 = 0.7605) of 0.5641 ± 0.0048 mPa·s and a viscosity (303.15 K, 101 kPa, x2 = 0.8435) of 0.5312 ± 0.0045 mPa·s. For the same compound, the viscosity (303.15 K, 101 kPa, x2 = 0.9213) was 0.4988 ± 0.0043 mPa·s.
Work on `ClC(Cl)=C(Cl)Cl` + C1COCCO1 yielded a viscosity (303.15 K, 101.33 kPa, x2 = 0.0711) of 0.8321 ± 0.0061 mPa·s, a viscosity (303.15 K, 101.33 kPa, x2 = 0.1527) of 0.8661 ± 0.0063 mPa·s and a viscosity (303.15 K, 101.33 kPa, x2 = 0.2465) of 0.8991 ± 0.0065 mPa·s. For the same compound, the viscosity (303.15 K, 101.33 kPa, x2 = 0.3656) was 0.9331 ± 0.0068 mPa·s, the viscosity (303.15 K, 101.33 kPa, x2 = 0.4126) was 0.9447 ± 0.0068 mPa·s and the viscosity (303.15 K, 101.33 kPa, x2 = 0.5332) was 0.9725 ± 0.007 mPa·s. The viscosity (303.15 K, 101.33 kPa, x2 = 0.6532) was 0.9982 ± 0.0072 mPa·s, the viscosity (303.15 K, 101.33 kPa, x2 = 0.7921) was 1.03 ± 0.0074 mPa·s and the viscosity (303.15 K, 101.33 kPa, x2 = 0.8937) was 1.055 ± 0.0076 mPa·s. The viscosity (303.15 K, 101.33 kPa, x2 = 0.9581) was 1.074 ± 0.0078 mPa·s.
In the case of `O=[N+]([O-])c1ccccc1` + C1COCCO1, the viscosity (303.15 K, 101 kPa, x1 = 0.0852) is reported as 1.058 ± 0.0073 mPa·s, the viscosity (303.15 K, 101 kPa, x1 = 0.1732) is reported as 1.058 ± 0.0073 mPa·s and the viscosity (303.15 K, 101 kPa, x1 = 0.265) is reported as 1.087 ± 0.0075 mPa·s. It also gave a viscosity (303.15 K, 101 kPa, x1 = 0.3592) of 1.107 ± 0.0077 mPa·s, a viscosity (303.15 K, 101 kPa, x1 = 0.4563) of 1.148 ± 0.008 mPa·s and a viscosity (303.15 K, 101 kPa, x1 = 0.5574) of 1.212 ± 0.0085 mPa·s. For the same compound, the viscosity (303.15 K, 101 kPa, x1 = 0.6625) was 1.274 ± 0.009 mPa·s, the viscosity (303.15 K, 101 kPa, x1 = 0.7711) was 1.369 ± 0.0096 mPa·s and the viscosity (303.15 K, 101 kPa, x1 = 0.8829) was 1.47 ± 0.01 mPa·s.
With `ClC(Cl)=C(Cl)Cl` + CC1CCCCC1 the viscosity (303.15 K, 101 kPa, x1 = 0.1166) was 0.637 ± 0.015 mPa·s, the viscosity (303.15 K, 101 kPa, x1 = 0.2246) was 0.648 ± 0.014 mPa·s and the viscosity (303.15 K, 101 kPa, x1 = 0.3047) was 0.658 ± 0.013 mPa·s. The viscosity (303.15 K, 101 kPa, x1 = 0.4335) was 0.679 ± 0.012 mPa·s, the viscosity (303.15 K, 101 kPa, x1 = 0.5554) was 0.708 ± 0.011 mPa·s and the viscosity (303.15 K, 101 kPa, x1 = 0.6523) was 0.734 ± 0.01 mPa·s. For the same compound, the viscosity (303.15 K, 101 kPa, x1 = 0.77) was 0.762 ± 0.009 mPa·s, the viscosity (303.15 K, 101 kPa, x1 = 0.8108) was 0.773 ± 0.009 mPa·s and the viscosity (303.15 K, 101 kPa, x1 = 0.8864) was 0.79 ± 0.008 mPa·s. For the same compound, the viscosity (303.15 K, 101 kPa, x1 = 0.9342) was 0.801 ± 0.008 mPa·s.
`C1CCC2CCCCC2C1` (stereo unspecified) + CC12CC3CC(C1)CC(C)(C3)C2 gave a viscosity (293.15 K, 100 kPa, x2 = 0.1034) of 2.607 ± 0.014 mPa·s, a viscosity (293.15 K, 100 kPa, x2 = 0.2043) of 2.713 ± 0.014 mPa·s and a viscosity (293.15 K, 100 kPa, x2 = 0.305) of 2.812 ± 0.014 mPa·s. It also gave a viscosity (293.15 K, 100 kPa, x2 = 0.4034) of 2.919 ± 0.014 mPa·s, a viscosity (293.15 K, 100 kPa, x2 = 0.5024) of 3.039 ± 0.015 mPa·s and a viscosity (293.15 K, 100 kPa, x2 = 0.6048) of 3.167 ± 0.015 mPa·s. The viscosity (293.15 K, 100 kPa, x2 = 0.7046) was 3.31 ± 0.016 mPa·s, the viscosity (293.15 K, 100 kPa, x2 = 0.8094) was 3.465 ± 0.016 mPa·s and the viscosity (293.15 K, 100 kPa, x2 = 0.9013) was 3.622 ± 0.016 mPa·s. It also gave a viscosity (298.15 K, 100 kPa, x2 = 0.1034) of 2.361 ± 0.013 mPa·s, a viscosity (298.15 K, 100 kPa, x2 = 0.2043) of 2.449 ± 0.013 mPa·s and a viscosity (298.15 K, 100 kPa, x2 = 0.305) of 2.53 ± 0.01 mPa·s. It also gave a viscosity (298.15 K, 100 kPa, x2 = 0.4034) of 2.628 ± 0.014 mPa·s, a viscosity (298.15 K, 100 kPa, x2 = 0.5024) of 2.728 ± 0.014 mPa·s and a viscosity (298.15 K, 100 kPa, x2 = 0.6048) of 2.844 ± 0.014 mPa·s. It also gave a viscosity (298.15 K, 100 kPa, x2 = 0.7046) of 2.967 ± 0.015 mPa·s, a viscosity (298.15 K, 100 kPa, x2 = 0.8094) of 3.102 ± 0.015 mPa·s and a viscosity (298.15 K, 100 kPa, x2 = 0.9013) of 3.237 ± 0.015 mPa·s. The viscosity (303.15 K, 100 kPa, x2 = 0.1034) was 2.148 ± 0.013 mPa·s, the viscosity (303.15 K, 100 kPa, x2 = 0.2043) was 2.227 ± 0.013 mPa·s and the viscosity (303.15 K, 100 kPa, x2 = 0.305) was 2.299 ± 0.013 mPa·s. For the same compound, the viscosity (303.15 K, 100 kPa, x2 = 0.4034) was 2.384 ± 0.013 mPa·s, the viscosity (303.15 K, 100 kPa, x2 = 0.5024) was 2.468 ± 0.013 mPa·s and the viscosity (303.15 K, 100 kPa, x2 = 0.6048) was 2.57 ± 0.014 mPa·s. For the same compound, the viscosity (303.15 K, 100 kPa, x2 = 0.7046) was 2.675 ± 0.014 mPa·s, the viscosity (303.15 K, 100 kPa, x2 = 0.8094) was 2.799 ± 0.014 mPa·s and the viscosity (303.15 K, 100 kPa, x2 = 0.9013) was 2.909 ± 0.015 mPa·s. For the same compound, the viscosity (313.15 K, 100 kPa, x2 = 0.1034) was 1.802 ± 0.012 mPa·s, the viscosity (313.15 K, 100 kPa, x2 = 0.2043) was 1.86 ± 0.012 mPa·s and the viscosity (313.15 K, 100 kPa, x2 = 0.305) was 1.917 ± 0.012 mPa·s. For the same compound, the viscosity (313.15 K, 100 kPa, x2 = 0.4034) was 1.98 ± 0.012 mPa·s, the viscosity (313.15 K, 100 kPa, x2 = 0.5024) was 2.046 ± 0.012 mPa·s and the viscosity (313.15 K, 100 kPa, x2 = 0.6048) was 2.125 ± 0.013 mPa·s. It also gave a viscosity (313.15 K, 100 kPa, x2 = 0.7046) of 2.206 ± 0.013 mPa·s, a viscosity (313.15 K, 100 kPa, x2 = 0.8094) of 2.298 ± 0.013 mPa·s and a viscosity (313.15 K, 100 kPa, x2 = 0.9013) of 2.385 ± 0.013 mPa·s. It also gave a viscosity (323.15 K, 100 kPa, x2 = 0.1034) of 1.505 ± 0.011 mPa·s, a viscosity (323.15 K, 100 kPa, x2 = 0.2043) of 1.547 ± 0.011 mPa·s and a viscosity (323.15 K, 100 kPa, x2 = 0.305) of 1.592 ± 0.011 mPa·s. It also gave a viscosity (323.15 K, 100 kPa, x2 = 0.4034) of 1.641 ± 0.012 mPa·s, a viscosity (323.15 K, 100 kPa, x2 = 0.5024) of 1.697 ± 0.012 mPa·s and a viscosity (323.15 K, 100 kPa, x2 = 0.6048) of 1.759 ± 0.012 mPa·s. For the same compound, the viscosity (323.15 K, 100 kPa, x2 = 0.7046) was 1.825 ± 0.012 mPa·s, the viscosity (323.15 K, 100 kPa, x2 = 0.8094) was 1.902 ± 0.012 mPa·s and the viscosity (323.15 K, 100 kPa, x2 = 0.9013) was 1.974 ± 0.012 mPa·s.
